Experimental data: paper PMC5923390, “Further New Diterpenoids as PTP1B Inhibitors from the Xisha Soft Coral Sinularia polydactyla” (Marine Drugs, 2018)
Several values for one entry are separate records, joined by “and”; a condition that tells them apart may be missing. Identical values can stand only once.

Target: T1, recombinant PTP1B catalytic domain (Homo sapiens, UniProt P18031)
T1 construct: Recombinant PTP1B catalytic domain was expressed and purified according to a previous report; made in house
T1 sequence (P18031 3-277 limits assumed): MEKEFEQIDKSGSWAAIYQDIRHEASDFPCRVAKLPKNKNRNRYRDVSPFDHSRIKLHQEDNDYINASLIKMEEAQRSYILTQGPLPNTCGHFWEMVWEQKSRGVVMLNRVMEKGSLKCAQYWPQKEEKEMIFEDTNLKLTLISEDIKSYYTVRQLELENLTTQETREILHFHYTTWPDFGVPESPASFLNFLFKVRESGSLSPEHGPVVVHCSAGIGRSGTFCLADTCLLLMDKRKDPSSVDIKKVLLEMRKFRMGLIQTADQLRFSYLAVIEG
Assay: PTP1B inhibitory activity assay (pNPP hydrolysis)
Type: biochemical
Conditions: for PTP1B inhibitory activity (in words): in vitro, pNPP hydrolysis; for IC50: pNPP 2 mmol/L, 30 nmol/L recombinant PTP1B, MOPs pH 6.5, 30 °C, absorbance 405 nm, read-out: IC50 against PTP1B
Procedure: Recombinant PTP1B catalytic domain was expressed and purified according to a previous report. The enzymatic activities of the PTP1B catalytic domain were determined at 30 °C by monitoring the hydrolysis of pNPP. The dephosphorylation of pNPP generated product pNP, which was monitored at an absorbance of 405 nm by the EnVision multi label plate reader (Perkin Elmer Life Sciences, Boston, MA). In an atypical 100 µL assay mixture containing 50 mmol/L 3-[N-morpholino] propanesulfonic acid (MOPs), pH 6.5, 2 mmol/L pNPP, and 30 nmol/L recombinant PTP1B, activities were continuously monitored and the initial rate of hydrolysis was determined using the early linear region of the enzymatic reaction kinetic curve. The IC50 was calculated with Prism 4 software (Graphpad, San Diego, CA).

SMILES	PTP1B inhibitory activity (in words)	IC50
C=C[C@@]1(C)CC[C@H](/C(C)=C/C=C/C(C)(C)O)C[C@@H]1C(=C)C [Compound 6, fuscol]	inactive	–
CC(=CC=CC(C)(C)O)C1CCC2(C)CCC=C(C)C2C1 (centres unmarked) [Compound 8, sinupol]	promising inhibitory activity	63.9 µM
CC1=CC[C@@H](O)[C@@]2(C)CC[C@H](/C(C)=C/C=C/C(C)(C)O)C[C@H]12 [Compound 7]	–	75.5 µM and 72.4 µM

Other lines, results leading:

PTP1B inhibitory activity (in words)	IC50	SMILES
promising inhibitory activity	51.8 µM	C=C1CCC=C(C)C(OC(C)=O)C(OC(C)=O)C(C(C)C)=CC2C(C)=CCC12 (centres unmarked) [Compound 9, sinulacetate]
inactive	–	CC1=CC=C(C(C)C)C(O)C(O)C(C)=CCCC(C)=CCC1 (centres unmarked) [Compound 10, sarcophytol B]
inactive	–	C=C[C@@]1(C)CC[C@H](/C(C)=C/C=C/C(C)(C)OC)C[C@@H]1C(=C)C [Compound 5, lobatetraene]
